{
  "source": "patent US8545834B2",
  "about": "“G-substrate for the treatment and prevention of parkinson's disease” (The McLean Hospital Corporation, priority 2007, dated 2013)",
  "type_in_all_cases": "cell-based, human",
  "key": {"[1]": {"tested_on": "VMAT2", "assay": "Western blot of VMAT2 expression in M17 cells", "excerpt": "BE(2)-M17 cells were used to investigate the interaction between G-substrate and α-synuclein, a known risk factor and possible causative agent in Parkinson's disease. […] Likewise, VMAT2 expression was reduced in naïve M17 cells following the reduction in endogenous G-substrate using siRNA (FIG. 10C).\nM17 cells transiently and stably overexpression α-synuclein were transfected using the G-substrate lentiviral vector described above.\nThe PP2A regulation of VMAT 2 was investigated in M17 cells. PP2A levels were reduced using RNAi. […] The effect of PP2A inhibition was not generalized to other dopaminergic markers tested.\n(§1) Cells and tissue samples were collected from and suspended in lysis buffer containing: 50 mM Tris-HCl, 0.15 M NaCl, 0.32 M sucrose, 1.0 mM EDTA, and 1% NP-40. In addition, phosphatase inhibitors I and II (1:100) and protease inhibitors (1:100) were added fresh prior to cell lysis (Sigma-Aldrich, P2850, P5276, and P8340 respectively). Following cell lysis, the homogenate was centrifuged, a portion of the supernatant was reserved for protein determination (BCA Assay, Pierce, Rockford, Ill.) and the remaining was stored at −20° C. 20 μg (in vitro cell preps) and 50 μg (tissue dissections) of solubilized protein were mixed 1:1 with sample buffer and boiled for 5 min. The samples and molecular weight standards were separated using the Criterion precast 10% SDS-polyacrylamide gel system (Bio-Rad, Hercules, Calif.). After electrophoresis, the proteins were electrically transferred to PVDF membranes at 100 V for 30 min. After transfer, blots were incubated in Tris-buffered saline with 0.1% Tween 20 (TBS-T) containing 5% BSA. Subsequently, blots were incubated with the following antibodies at 4° C. overnight (1:1000 unless otherwise stated): phospho-Akt (ser473), phospho-GSK3β (ser9), phospho-erk1/2, and phospho-p38 (Cell Signaling Technologies, Danvers, Mass.). HRP-conjugated secondary antibodies were then applied and immunoreactive bands were visualized with chemiluminescence (Amersham Biosciences, Arlington Heights, Ill.) and exposed onto film. Immunoblots were then stripped and re-probed for the expression of the total protein (Cell Signaling) and beta-actin (1:10 000) (Abcam) to serve as a loading control. Optical density analysis (NIH image) was used to determine the relative abundance of protein in each sample. The optical densities of the phospho epitopes were standardized to their respective total proteins and this value was used in the statistical analyses."}, "[2]": {"tested_on": "Akt, GSK3β, ERK1/2, p38", "assay": "Western blot of phosphorylation levels of PP2A targets in BE(2)-M17 cells", "excerpt": "As described herein, G-substrate overexpression altered the phosphorylation levels of PP2A targets known to play critical roles in cell survival. Akt, GSK3β, and ERK1/2 are known to promote cell survival when phosphorylated (Song et al., J. Cell. Mol. Med. 9: 59-71, 2005; Chen et al., 2004; Ray et al., J. Biol. Chem. 280: 31091-31100, 2005; Tamura et al., FEBS Lett. 569: 249-255, 2004) and phosphorylated p38 is known to mediate cell death in dopaminergic neurons exposed to various toxins including 6-OHDA (Choi et al., J. Biol. Chem. 279: 20451-20460, 2004; Ruano et al., Neurosci. 140: 1157-1168, 2006; Ou et al., Proc. Natl. Acad. Sci. USA 103: 10923-10928, 2006). To test whether changes in phosphorylation levels of these proteins are G-substrate-dependent, both control and G-substrate-expressing cells were exposed to 50 μM 6-OHDA for various durations (t=0, 2, 5 and 10 hr). BE(2)-M17 cells were prepared and cultured as described above. The level of the total and phosphorylated forms of these PP2A substrates was detected by Western blot analysis (FIGS. 7A, 7C, 7E, and 7H).\nas §1"}, "[3]": {"tested_on": "PP2A", "assay": "PP2A activity assay (immunoprecipitated PP2A, phosphopeptide, Malachite Green)", "conditions": "BE(2)-M17 cells exposed to 50 μM 6-OHDA for 2 hours; versus control cells", "procedure": "PP2A activity was measured in control BE(2)-M17 cells at various incubation times (t=0, 1, 2, 5 and 8 hr) after exposure to 50 μM 6-OHDA. […] Control, wild-type, and T123A G-substrate-expressing cells were then exposed to 50 μM 6-OHDA for 2 hours before measurement of PP2A activity.\nPP2A activity was measured using a non-radioactive kit according to the manufacturer's instruction (Upstate Biotechnologies, Lake Placid, N.Y.). After 50 μM 6-OHDA exposure with various times, cells were harvested in 20 mM imidazole-HCl, 2 mM EDTA, 2 mM EGTA, pH7 with a protease inhibitor cocktail (Sigma). Protein concentrations of the lysates were measured using BCA assay (Pierce) and 500 μg of protein was immunoprecipitated using an anti-PP2A catalytic subunit antibody and protein A-Sepharose beads. Immunoprecipitated PP2A was then incubated with phosphopeptide (K-R-pT-I-R-R (SEQ ID NO: 8)) for 10 min at 37° C. Dephosphorylation of the phosphopeptide was assayed spectrophotometrically at 650 nm using Malachite Green."}},
  "data": [
    {"substance": "G-substrate: human wild type G-substrate (SEQ ID NO.: 1) overexpressed from a lentiviral vector", "values": [
      {"measurement": "VMAT2 expression in α-synuclein overexpressing cells", "setting": "[1]; M17 cells transiently and stably overexpressing α-synuclein", "result": "reversing the α-synuclein-induced loss of VMAT2"},
      {"measurement": "VMAT2 expression", "setting": "[1]; naïve M17 cells", "result": "significant increase"},
      {"measurement": "level of phosphorylated p38", "setting": "[2]; G-substrate overexpression, 50 μM 6-OHDA", "result": "did not alter"},
      {"measurement": "level of pAkt", "setting": "[2]; G-substrate overexpression, basal and 2, 5 and 10 hours after 50 μM 6-OHDA", "result": "significant increase"},
      {"measurement": "basal level of pGSK3β", "setting": "[2]; G-substrate-overexpressing cells, basal", "result": "increased"},
      {"measurement": "level of pErk2", "setting": "[2]; only at 10 hours following 50 μM 6-OHDA, no basal level increase", "result": "increased"},
      {"measurement": "level of pErk1", "setting": "[2]; similar trend as pErk2, 50 μM 6-OHDA", "result": "did not reach the statistical significance"},
      {"measurement": "PP2A activity in G-substrate-expressing cells", "setting": "[3]", "result": "significant reduction"}
    ]}
  ]
}
